# According to patent US20230045151A1, “COMPOSITIONS AND METHODS” (MONASH UNIVERSITY, priority 2020, published 2023):
# Tested on: C57BL6/J mice exposed intranasally to house dust mite extract (HDM)
# Experiment: HDM animal model of allergic airway inflammation
# Type: in vivo, mouse
# Description: Mice received water as a control or L-tyrosine (reagent grade, ≥98% Sigma-Aldrich, St. Louis, Mo.) resuspended in drinking water under sterile conditions at the concentration of 100 mg/kg/day or 500 mg/kg/day (based on the assumption of a mouse consuming 4 ml of water daily). All mice received the treatment 2 weeks prior and throughout the experiment. […] Control mice received 200 μl of saline. […]. For experiments employing antibiotic treatment, 3-week old mice were treated with a combination enrofloxacin (10 mg/kg/day) and amoxicillin with clavulanic acid (1 mg/kg/day) for one week, followed by one week of only amoxicillin with clavulanic acid (1 mg/kg/day). Then, mice were then put on L-tyrosine diet in drinking water for two weeks followed by HDM exposure as before. During this time, mice were maintained on antibiotic treatment with amoxicillin/clavulanic acid until end of experiment.
# Mice were anaesthetised by the inhalation of 4% isoflurane in oxygen for 3-5 minutes. 20 μg of protein content of crude house dust mite extract (HDM) (Greer Laboratories Inc., Lenoir, N.C.) in 20 μl of sterile phosphate-buffered saline (PBS) (Gibco™) was applied intranasally on days 0, 11, 12 and 13. Mice were humanely sacrificed with the lethal dose of pentobarbital (Streuli Pharma AG, Uznach, Switzerland) on day 14.
# Bronchoalveolar lavage fluid (BALF) was collected by flushing airways with 0.5 ml PBS supplemented with 0.2% bovine serum albumin (Sigma-Aldrich, St. Louis, Mo.). Total cell number was determined with Coulter Counter (IG Instrumenten-Gesellschaft AG, Basel, Switzerland) while differential cell staining performed on cytospins stained with Diff-Quik solution (Dade Behring, Siemens Healthcare Diagnostics, Deerfield, Ill.). Percentages of neutrophils, macrophages, lymphocytes and eosinophils were assessed by counting 200 cells per sample.
# Concentrations of interleukin-4, -5, -13, -17 and IFN-γ in culture supernatants were analysed with mouse Ready-Set-Go!™ ELISA kits (eBioscience™, San Diego, Calif.) according to manufacturer's instructions. To measure the levels of HDM-specific IgG1 and IgE in plasma, half area 96-well plates (Corning) were coated with HDM (10 μg in PBS) overnight at 4° C., followed by the incubation of samples for 2 hours at RT, and the addition of alkaline-phophatase-conjugated goat anti-mouse IgE or IgG1 (both from SouthernBiotech, Birmingham, Ala.; diluted at 1 μg ml-1 in PBS 0.2% BSA) for 2 hours at RT. 4-nitrophenyl phosphate sodium salt hexahydrate (pNPP) (Sigma) was used as a substrate, and the colorimetric reaction was read at 405 nm on the Synergy H1 microplate reader (Biotek, Luzern, Switzerland). To measure the levels of total IgA and IgM as well as hen egg lysozyme (HEL)-specific IgA and IgM in mouse faeces, faecal pellets were homogenized in 0.8 ml cold PBS, centrifuged at 400 g for 5 minutes to remove large debris, filtered through 40 μm cell strainer and centrifuged at 8000 g for 10 minutes to pellet bacteria. The supernatant was collected and loaded for 2 hours at RT on 96-well half area plates coated a day before at 4° C. with anti-IgA (Southern Biotech; 2 μg ml-1), anti-IgM (SouthernBiotech; 2 μg ml-1) or HEL protein (Sigma-Aldrich; 10 μg/ml). This step was followed by the addition of alkalinephophatase-conjugated goat anti-mouse IgA or IgM (both at 1 μg ml-1 in PBS 0.2% BSA) for 2 hours at RT. 4-nitrophenyl phosphate sodium salt hexahydrate (pNPP) (Sigma) was used as a substrate, and the colorimetric reaction was read at 405 nm as before.
# Mediastinal lymph nodes were filtered through a 40 μm cell strainer, washed with PBS supplemented with 1% fetal bovine serum and 2 mM EDTA (Invitrogen) (MACS buffer). Lungs were finely cut with scissors, digested with Collagenase IV (Gibco™) in Iscove's modified Dulbecco's medium (IMDM, Gibco™) for 50 min at 37° C. and processed as the lymph nodes.
# [1] = L-tyrosine oral in drinking water
smiles,measurement,setting,value
N[C@@H](Cc1ccc(O)cc1)C(=O)O [L-tyrosine],FoxP3+ Treg cells in the lungs,[1],not altered
same,numbers of T helper cells in the lungs,[1],not altered
same,recruitment of DCs (lungs),[1],reduced
same,recruitment of neutrophils (BALF),[1],reduced
same,recruitment of eosinophils (BALF),"L-tyrosine oral in drinking water, 2 weeks prior and throughout, vs water",reduced
same,IL-5 concentrations in culture supernatants of mediastinal LNs,"L-tyrosine oral in drinking water, not reaching statistical significance",trend towards a decrease
same,production of IL-13 by restimulated mediastinal LNs,"L-tyrosine oral in drinking water, restimulated with HDM for 4 days",reduced
same,"protective effect of L-tyrosine under antibiotic treatment (eosinophils, DCs, IL-5 in BALF)",L-tyrosine oral plus enrofloxacin and amoxicillin/clavulanic acid (microbiota depletion),abrogated
same,CCL20 concentrations in the BALF,L-tyrosine-treated wild-type mice exposed to HDM,reduced
